From US7605174B2, “Indane derivatives as modulators of ion channels” (Vertex Pharmaceuticals Incorporated, priority 2005, dated 2009)

Target: T1, NaV1.3 (Homo sapiens, UniProt Q9NY46)
Test: not given
Settings: read-out: TTX IC50; cited from earlier work
Target sequence in this assay (Q9NY46 whole entry, looked up): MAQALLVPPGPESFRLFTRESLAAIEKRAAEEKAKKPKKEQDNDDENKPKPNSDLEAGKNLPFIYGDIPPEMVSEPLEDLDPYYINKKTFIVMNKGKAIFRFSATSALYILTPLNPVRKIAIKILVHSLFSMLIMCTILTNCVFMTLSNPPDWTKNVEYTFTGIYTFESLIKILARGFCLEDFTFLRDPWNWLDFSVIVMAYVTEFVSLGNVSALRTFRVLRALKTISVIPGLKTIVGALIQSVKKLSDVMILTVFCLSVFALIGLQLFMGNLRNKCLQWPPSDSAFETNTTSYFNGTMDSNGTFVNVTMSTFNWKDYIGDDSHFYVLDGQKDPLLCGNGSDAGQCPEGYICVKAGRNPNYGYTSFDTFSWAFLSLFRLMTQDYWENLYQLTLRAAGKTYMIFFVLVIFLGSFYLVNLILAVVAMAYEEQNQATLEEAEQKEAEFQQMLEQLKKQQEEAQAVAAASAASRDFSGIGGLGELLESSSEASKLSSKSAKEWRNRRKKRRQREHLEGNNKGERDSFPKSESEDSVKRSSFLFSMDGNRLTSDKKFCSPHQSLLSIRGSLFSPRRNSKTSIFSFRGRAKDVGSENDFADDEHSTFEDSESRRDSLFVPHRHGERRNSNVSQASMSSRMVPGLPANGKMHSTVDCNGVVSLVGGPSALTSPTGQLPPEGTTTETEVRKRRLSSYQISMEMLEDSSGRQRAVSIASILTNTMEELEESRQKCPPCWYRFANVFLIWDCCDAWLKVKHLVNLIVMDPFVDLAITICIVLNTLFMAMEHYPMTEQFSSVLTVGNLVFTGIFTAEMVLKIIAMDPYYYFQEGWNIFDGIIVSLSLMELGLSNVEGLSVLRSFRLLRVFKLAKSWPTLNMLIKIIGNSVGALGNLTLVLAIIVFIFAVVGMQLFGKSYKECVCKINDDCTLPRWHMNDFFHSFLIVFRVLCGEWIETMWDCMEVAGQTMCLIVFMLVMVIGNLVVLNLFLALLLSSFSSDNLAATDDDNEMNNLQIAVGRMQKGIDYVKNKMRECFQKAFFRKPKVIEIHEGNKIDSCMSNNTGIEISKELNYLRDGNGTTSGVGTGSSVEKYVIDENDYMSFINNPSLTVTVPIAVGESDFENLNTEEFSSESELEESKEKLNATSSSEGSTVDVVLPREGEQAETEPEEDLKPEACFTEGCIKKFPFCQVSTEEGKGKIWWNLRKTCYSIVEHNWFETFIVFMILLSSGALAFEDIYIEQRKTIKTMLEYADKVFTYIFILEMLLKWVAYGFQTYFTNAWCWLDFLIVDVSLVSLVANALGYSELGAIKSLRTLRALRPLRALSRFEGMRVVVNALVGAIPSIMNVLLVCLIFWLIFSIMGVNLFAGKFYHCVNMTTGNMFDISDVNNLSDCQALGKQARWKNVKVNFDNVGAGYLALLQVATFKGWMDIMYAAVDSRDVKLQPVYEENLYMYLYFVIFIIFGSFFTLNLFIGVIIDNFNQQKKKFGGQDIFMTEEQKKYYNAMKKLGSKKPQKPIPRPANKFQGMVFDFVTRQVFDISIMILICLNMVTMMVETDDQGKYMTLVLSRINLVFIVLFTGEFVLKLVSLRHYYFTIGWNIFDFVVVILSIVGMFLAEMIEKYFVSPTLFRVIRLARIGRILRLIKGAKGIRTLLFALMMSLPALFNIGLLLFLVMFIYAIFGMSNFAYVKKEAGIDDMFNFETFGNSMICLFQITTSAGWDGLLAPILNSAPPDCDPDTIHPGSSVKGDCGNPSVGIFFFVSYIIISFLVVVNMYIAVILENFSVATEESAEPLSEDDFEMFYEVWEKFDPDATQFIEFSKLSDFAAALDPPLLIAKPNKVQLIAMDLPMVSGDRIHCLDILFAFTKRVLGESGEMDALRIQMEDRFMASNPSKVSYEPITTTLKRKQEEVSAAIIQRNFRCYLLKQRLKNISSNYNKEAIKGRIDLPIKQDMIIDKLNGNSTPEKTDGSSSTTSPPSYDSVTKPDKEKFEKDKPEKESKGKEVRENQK
For `NC1=N[C@H](O)[C@H]2[C@H]3O[C@]4(O)O[C@@H]([C@@H](O)[C@@]2(N1)[C@@H]4O)[C@]3(O)CO` [TTX, tetrodotoxin], the IC50 is given as 15 nM.

Test system: not given
Test: not given
Settings: in vivo; cited from earlier work
For `NCC1(CC(=O)O)CCCCC1` [Gabapentin], the “patients in whom the drug works” value is given as 60%.

Target: T1, NaV1.3
Test: Activity against NaV 1.3 channel (optical membrane potential assay, electrical stimulation)
Type: cell-based
Parameters: expressed in transfected cells; host or cells: HEK293
Settings: not given
Description: Compounds of the invention are useful as antagonists of voltage-gated sodium ion channels. Antagonist properties of test compounds were assessed as follows. Cells expressing the NaV of interest were placed into microtiter plates. After an incubation period, the cells were stained with fluorescent dyes sensitive to the transmembrane potential. The test compounds were added to the microtiter plate. The cells were stimulated with either a chemical or electrical means to evoke a NaV dependent membrane potential change from unblocked channels, which was detected and measured with trans-membrane potential-sensitive dyes. Antagonists were detected as a decreased membrane potential response to the stimulus. The optical membrane potential assay utilized voltage-sensitive FRET sensors described by Gonzalez and Tsien (See, Gonzalez, J. E. and R. Y. Tsien (1995) “Voltage sensing by fluorescence resonance energy transfer in single cells” Biophys J 69(4): 1272-80, and Gonzalez, J. E. and R. Y. Tsien (1997) “Improved indicators of cell membrane potential that use fluorescence resonance energy transfer” Chem Biol 4(4): 269-77) in combination with instrumentation for measuring fluorescence changes such as the Voltage/Ion Probe Reader (VIPR®) (See, Gonzalez, J. E., K. Oades, et al. (1999) “Cell-based assays and instrumentation for screening ion-channel targets” Drug Discov Today 4(9): 431-439).
The following is an example of how NaV1.3 inhibition activity is measured using the optical membrane potential method#2. Other subtypes are performed in an analogous mode in a cell line expressing the NaV of interest.
HEK293 cells stably expressing NaV1.3 are plated into 96-well microtiter plates. After an appropriate incubation period, the cells are stained with the voltage sensitive dyes CC2-DMPE/DiSBAC2(3) as follows.
2×CC2-DMPE=20 μM CC2-DMPE: 10 mM CC2-DMPE is vortexed with an equivalent volume of 10% pluronic, followed by vortexing in required amount of HBSS containing 10 mM HEPES. Each cell plate will require 5 mL of 2×CC2-DMPE. 50 μL of 2×CC2-DMPE is to wells containing washed cells, resulting in a 10 μM final staining concentration. The cells are stained for 30 minutes in the dark at RT.
2×DISBAC2(3) with ABSC1=6 μM DISBAC2(3) and 1 mM ABSC1: The required amount of 10 mM DISBAC2(3) is added to a 50 ml conical tube and mixed with 1 μL 10% pluronic for each mL of solution to be made and vortexed together. Then HBSS/HEPES is added to make up 2× solution. Finally, the ABSC1 is added.
The 2×DiSBAC2(3) solution can be used to solvate compound plates. Note that compound plates are made at 2× drug concentration. Wash stained plate again, leaving residual volume of 50 μL. Add 50 uL/well of the 2×DiSBAC2(3) w/ABSC1. Stain for 30 minutes in the dark at RT.
The electrical stimulation instrument and methods of use are described in ION Channel Assay Methods PCT/US01/21652, herein incorporated by reference. The instrument comprises a microtiter plate handler, an optical system for exciting the coumarin dye while simultaneously recording the coumarin and oxonol emissions, a waveform generator, a current- or voltage-controlled amplifier, and a device for inserting electrodes in well. Under integrated computer control, this instrument passes user-programmed electrical stimulus protocols to cells within the wells of the microtiter plate.
• 1. Insert or use electrodes into each well to be assayed. • 2. Use the current-controlled amplifier to deliver stimulation wave pulses for 3 s. Two seconds of pre-stimulus recording are performed to obtain the un-stimulated intensities. Five seconds of post-stimulation recording are performed to examine the relaxation to the resting state.
Data are analyzed and reported as normalized ratios of background-subtracted emission intensities measured in the 460 nm and 580 nm channels. Background intensities are then subtracted from each assay channel. […]
Target sequence in this assay (Q9NY46 whole entry): as the sequence (Q9NY46 whole entry, looked up) above
With `O=C(NC1Cc2ccc(S(=O)(=O)Nc3nccs3)cc2C1)Oc1cccc(C(F)(F)F)c1` (stereo not shown) [Compound 1] the IC50 was < 2000 nM. For `O=C(NC1Cc2ccc(S(=O)(=O)Nc3nccs3)cc2C1)Oc1ccc(Cl)cc1` (stereo not shown) [Compound 11], the IC50 was < 2000 nM.

Same assay, conditions: NaV 1.3 channel; read-out: IC50
In the case of `O=C(COc1ccc(Cl)cc1)NC1Cc2ccc(S(=O)(=O)Nc3nccs3)cc2C1` (stereo not shown) [Compound 2], the IC50 is reported as < 2000 nM. For `O=C(NC1Cc2ccc(S(=O)(=O)Nc3nccs3)cc2C1)c1cc(F)ccc1F` (stereo not shown) [Compound 3], the IC50 was > 5000 nM. With `O=C(CCn1ccc2cc(Cl)ccc21)NC1Cc2ccc(S(=O)(=O)Nc3nccs3)cc2C1` (stereo not shown) [Compound 4, 3-(5-Chloro-indol-1-yl)-N-[5-(thiazol-2-ylsulfamoyl)-indan-2-yl]-propionamide] the IC50 was < 2000 nM. For `O=C(COc1ccc(F)c(Cl)c1)NC1Cc2ccc(S(=O)(=O)Nc3nccs3)cc2C1` (stereo not shown) [Compound 5], the IC50 was < 2000 nM. In the case of `O=C(NC1Cc2ccc(S(=O)(=O)Nc3nccs3)cc2C1)c1ccc(F)cc1` (stereo not shown) [Compound 6, 4-Fluoro-N-[5-(thiazol-2-ylsulfamoyl)-indan-2-yl]-benzamide], the IC50 is reported as > 5000 nM. For `O=C(NC1Cc2ccc(S(=O)(=O)Nc3nccs3)cc2C1)c1c(F)cc(F)cc1F` (stereo not shown) [Compound 7], the IC50 was > 5000 nM. For `O=C(NC1Cc2ccc(S(=O)(=O)Nc3nccs3)cc2C1)c1ccc(Cl)c(Cl)c1` (stereo not shown) [Compound 8], the IC50 was 2000 to 5000 nM. In the case of `O=C(COc1ccccc1)NC1Cc2ccc(S(=O)(=O)Nc3nccs3)cc2C1` (stereo not shown) [Compound 9], the IC50 is reported as > 5000 nM. With `O=C(NC1Cc2ccc(S(=O)(=O)Nc3nccs3)cc2C1)c1ccc(C(F)(F)F)cc1` (stereo not shown) [Compound 10] the IC50 was > 5000 nM. With `CC(C)(C)c1ccc(OCC(=O)NC2Cc3ccc(S(=O)(=O)Nc4nccs4)cc3C2)cc1` (stereo not shown) [Compound 12] the IC50 was < 2000 nM. For `O=C(COc1ccc(F)cc1)NC1Cc2ccc(S(=O)(=O)Nc3nccs3)cc2C1` (stereo not shown) [Compound 13], the IC50 was 2000 to 5000 nM. With `O=C(NC1Cc2ccc(S(=O)(=O)Nc3nccs3)cc2C1)c1ccccc1F` (stereo not shown) [Compound 14] the IC50 was > 5000 nM. For `O=C(CCOc1ccccc1)NC1Cc2ccc(S(=O)(=O)Nc3nccs3)cc2C1` (stereo not shown) [Compound 15], the IC50 was > 5000 nM. With `O=C(COc1cccc(Cl)c1)NC1Cc2ccc(S(=O)(=O)Nc3nccs3)cc2C1` (stereo not shown) [Compound 16, 2-(3-Chloro-phenoxy)-N-[5-(thiazol-2-ylsulfamoyl)-indan-2-yl]-acetamide] the IC50 was < 2000 nM. In the case of `CC(C(=O)NC1Cc2ccc(S(=O)(=O)Nc3nccs3)cc2C1)n1ccc2ccccc21` (stereo not shown) [Compound 17, 2-Indol-1-yl-N-[5-(thiazol-2-ylsulfamoyl)-indan-2-yl]-propionamide], the IC50 is reported as 2000 to 5000 nM.
